In BindingDB's records for doi:10.1016/s0960-894x(03)00528-6 (Aston University, 2003):

What follows are compounds tested against Arachidonate 15-lipoxygenase (Oryctolagus cuniculus) (assay: In vitro inhibitory activity of compound on rabbit reticulocyte 15-lipoxygenase).

SMILES | IC50 [nM]
O=C(Nc1ccc(O)c(O)c1)c1ccc(NCc2ccccc2O)cc1 [N-(3,4-Dihydroxy-phenyl)-4-(2-hydroxy-benzylamino)-benzamide] | 1010
O=C(CCc1ccc(NC(=O)c2ccccc2O)cc1)Nc1ccc(O)c(O)c1 [N-{4-[2-(3,4-Dihydroxy-phenylcarbamoyl)-ethyl]-phenyl}-2-hydroxy-benzamide] | 1450
O=C(/C=C/c1ccc(NC(=O)c2ccccc2O)cc1)Nc1ccc(O)c(O)c1 [N-{4-[2-(3,4-Dihydroxy-phenylcarbamoyl)-vinyl]-phenyl}-2-hydroxy-benzamide] | 1470

Continued by falling IC50, values first:

IC50 [nM] | SMILES
1510 | O=C(Nc1ccc(NC(=O)c2ccccc2O)cc1)Nc1ccc(O)c(O)c1 [N-{4-[3-(3,4-Dihydroxy-phenyl)-ureido]-phenyl}-2-hydroxy-benzamide]
1270 | O=C(Nc1ccc(O)c(O)c1)c1ccc(NC(=O)c2ccccc2O)cc1 [N-(4-{[(3,4-dihydroxyphenyl)amino]carbonyl}phenyl)-2-hydroxybenzamide]
